According to PubChem BioAssay AID330 (DTP/NCI, 2004):
Values joined by “and” are separate entries in the source; they are usually repeats but may differ in a detail not shown here. Equal values may be shown once. Toxic doses and inconclusive results are not listed. Rule for the calls: active = survival T/C of 150% or more; inactive = T/C below 125% in these data.

Tested on: P388 leukemia ip, CD2F1 mice, survival T/C
Assay: NCI In Vivo Anticancer Drug Screen. Data for tumor model P388 Leukemia (intraperitoneal) in CD2F1 (CDF1) mice
Details: endpoint: median survival time, higher = longer survival
Summary of the method: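 Mice carrying the transplanted tumor received test compound or vehicle. Survival was recorded in each group, and the value is the treated-group measurement divided by that of the vehicle-treated control group.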

[1] = dose: 100.0 mg/kg/injection, schedule: Q01DX009 (ip), vehicle: saline
[2] = dose: 200.0 mg/kg/injection, schedule: Q01DX009 (ip), vehicle: saline
[3] = dose: 25.0 mg/kg/injection, schedule: Q01DX009 (ip), vehicle: saline with Tween-80
[4] = dose: 50.0 mg/kg/injection, schedule: Q01DX009 (ip), vehicle: saline with Tween-80
[5] = dose: 100.0 mg/kg/injection, schedule: Q01DX009 (ip), vehicle: saline with Tween-80
[6] = dose: 200.0 mg/kg/injection, schedule: Q01DX009 (ip), vehicle: saline with Tween-80

Measured: T/C

COC(=O)C1=C2Nc3ccccc3C23CCN2C(O)C4(CC5CC67CCOC6CCN6CCC8(c9cccc(OC)c9N(C4)C58O)C67)C4OCCC4(C1)C23 (stereo not given)
inactive: dose: 3.12 mg/kg/injection, schedule: Q01DX005 (ip), vehicle: Klucel (hydroxypropylcellulose) (HPC) 96 % of control | dose: 6.25 mg/kg/injection, schedule: Q01DX005 (ip), vehicle: Klucel (hydroxypropylcellulose) (HPC) 99 % of control | dose: 12.5 mg/kg/injection, schedule: Q01DX005 (ip), vehicle: Klucel (hydroxypropylcellulose) (HPC) 99 % of control | dose: 25.0 mg/kg/injection, schedule: Q01DX005 (ip), vehicle: Klucel (hydroxypropylcellulose) (HPC) 87 % of control and 89 % of control

CCC[N+]1([O-])CCOCC1
inactive: dose: 50.0 mg/kg/injection, schedule: Q01DX009 (ip), vehicle: saline 102 % of control | [1] 100 % of control | [2] 94 % of control

O=C1CCC(=O)N1SCc1cccc2ccccc12
inactive: dose: 50.0 mg/kg/injection, schedule: Q01DX009 (ip), vehicle: Klucel (hydroxypropylcellulose) (HPC) 115 % of control | dose: 100.0 mg/kg/injection, schedule: Q01DX009 (ip), vehicle: Klucel (hydroxypropylcellulose) (HPC) 93 % of control | dose: 200.0 mg/kg/injection, schedule: Q01DX009 (ip), vehicle: Klucel (hydroxypropylcellulose) (HPC) 102 % of control

CCOC(=O)Cc1csc(=S)n1-c1ccccc1
inactive: dose: 50.0 mg/kg/injection, schedule: Q01DX005 (ip), vehicle: saline with Tween-80 102 % of control | dose: 100.0 mg/kg/injection, schedule: Q01DX005 (ip), vehicle: saline with Tween-80 102 % of control | dose: 200.0 mg/kg/injection, schedule: Q01DX005 (ip), vehicle: saline with Tween-80 90 % of control

COC(=O)C(CS[C@@H]1CCCC[C@H]1O)NC(C)=O (stereo not given in full)
inactive: dose: 40.0 mg/kg/injection, schedule: Q01DX005 (ip), vehicle: saline 92 % of control | dose: 60.0 mg/kg/injection, schedule: Q01DX005 (ip), vehicle: saline 96 % of control | dose: 120.0 mg/kg/injection, schedule: Q01DX005 (ip), vehicle: saline 96 % of control

O=Cc1cc(C=O)c2ccc(=O)[nH]c2n1
inactive: dose: 60.0 mg/kg/injection, schedule: Q01DX005 (ip), vehicle: Klucel (hydroxypropylcellulose) (HPC) 109 % of control | dose: 120.0 mg/kg/injection, schedule: Q01DX005 (ip), vehicle: Klucel (hydroxypropylcellulose) (HPC) 114 % of control

CCC(C)(C)C(=O)Nc1cccc(OC(=O)NC)c1
inactive: [3] 100 % of control | [4] 92 % of control | [5] 101 % of control

CC(=O)Nc1ccccc1C(C)=O
inactive: [4] 91 % of control | dose: 50.0 mg/kg/injection, schedule: Q04DX003 (ip), vehicle: saline with Tween-80 95 % of control | [5] 95 % of control | dose: 100.0 mg/kg/injection, schedule: Q04DX003 (ip), vehicle: saline with Tween-80 100 % of control | [6] 100 % of control | dose: 200.0 mg/kg/injection, schedule: Q04DX003 (ip), vehicle: saline with Tween-80 100 % of control

CC(=O)Nc1ccc(/C=N/Nc2ccc([N+](=O)[O-])cn2)cc1
inactive: [1] 86 % of control | [2] 90 % of control | dose: 400.0 mg/kg/injection, schedule: Q01DX009 (ip), vehicle: saline 90 % of control

CSc1ncnc2c1c1c(N)ncnc1n2C1OC(CO)C(O)C1O (stereo not given)
inactive: dose: 25.0 mg/kg/injection, schedule: Q01DX005 (ip), vehicle: other 97 % of control | dose: 50.0 mg/kg/injection, schedule: Q01DX005 (ip), vehicle: other 97 % of control | dose: 100.0 mg/kg/injection, schedule: Q01DX005 (ip), vehicle: other 109 % of control | dose: 200.0 mg/kg/injection, schedule: Q01DX005 (ip), vehicle: other 105 % of control

CC1=CC(=O)C(O)C2(C)C1CC1OC(=O)CC3C(C)C(O)C4(O)OCC13C42 (stereo not given)
inactive: dose: 5.0 mg/kg/injection, schedule: Q01DX009 (ip), vehicle: Klucel (hydroxypropylcellulose) (HPC) 107 % of control | dose: 10.0 mg/kg/injection, schedule: Q01DX009 (ip), vehicle: Klucel (hydroxypropylcellulose) (HPC) 117 % of control | dose: 20.0 mg/kg/injection, schedule: Q01DX009 (ip), vehicle: Klucel (hydroxypropylcellulose) (HPC) 123 % of control

CCCC(OC(C)=O)C(C)[N+](=O)[O-] (stereo not given)
inactive: dose: 12.5 mg/kg/injection, schedule: Q01DX009 (ip), vehicle: saline with Tween-80 91 % of control | [3] 100 % of control | [4] 102 % of control | [5] 104 % of control | [6] 112 % of control

COC(=O)NC[Si](C)(C)C
inactive: dose: 15.0 mg/kg/injection, schedule: Q01DX005 (ip), vehicle: saline with Tween-80 105 % of control | dose: 30.0 mg/kg/injection, schedule: Q01DX005 (ip), vehicle: saline with Tween-80 106 % of control | dose: 60.0 mg/kg/injection, schedule: Q01DX005 (ip), vehicle: saline with Tween-80 103 % of control
